Measurements from EP0134922A1, “2-Piperazino-pteridines, processes for their preparation and medicaments containing these compounds” (Dr. Karl Thomae GmbH, priority 1983, dated 1985).
Where two headings read alike, the source gives them in different places.

Key:
Mäusen = assay: Orienting acute toxicity after a single oral dose; conditions: in vivo, po, 250 mg/kg
Source text: (§1) Die orientierende akute Toxizität der zu untersuchenden Substanzen wurde orientierend an Gruppen von je 5 Mäusen nach oraler Gabe einer Einzeldosis bestimmt (Beobachtungszeit: 14 Tage): […]

[1] = Orienting acute toxicity after a single oral dose; conditions: mouse, in vivo, read-out: Orientierende aktute Toxizität
Source text: as §1

[2] = mice, groups of 5, oral single dose, observation time 14 days

Compound | Tieren gestorben (Mäusen) | LD50 at 336 h [1, 2] | LD50 at 336 h ([1]; po)
CN(C)c1nc2nc(N3CCNCC3)nc(N(C)C)c2nc1SCc1ccccc1 [Substanz C, 6-Benzylthio-4,7-bis-(dimethylamino)-2-piperazino-pteridin] | 0 von 5 | > 250 mg/kg | –
CN(C)c1nc2nc(N3CCNCC3)nc(N(C)C)c2nc1Cl [Substanz B, 6-Chlor-4,7-bis-(dimethylamino)-2-piperazino-pteridin] | 0 von 5 | – | > 250 mg/kg
c1ccc(CSc2nc3c(N4CCOCC4)nc(N4CCNCC4)nc3nc2N2CCOCC2)cc1 [Substanz A, 6-Benzylthio-4,7-dimorpholino-2-piperazino-pteridin] | 0 von 5 | > 250 mg/kg | –
CSc1nc2c(N3CC[S+]([O-])CC3)nc(N3CCNCC3)nc2nc1NCc1ccccc1 [Substanz D, 7-Benzylamino-6-methylthio-4-(1-oxidothiomorpholino)-2-piperazino-pteridin] | 0 von 5 | > 250 mg/kg | –
CN(C)c1nc(N2CCNCC2)nc2nc(NCc3ccccc3)c(Cl)nc12 [Substanz E, 6-Chlor-2-piperazino-4-dimethyl-amino-7-benzylamino-pteridin] | 0 von 5 | – | > 250 mg/kg
